Measurements reported in patent US20130303509A1, “NAMPT INHIBITORS” (AbbVie Inc., priority 2012, published 2013).

Tested on: PC3 cells
Experiment: NAMPT Cell Proliferation Assay
Type: cell-based
Conditions: Homo sapiens, PC-3, 120 h, 5 days incubation, cell viability by Cell Titer Glo
How it was run: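 Five-day CellTiter-Glo viability readout in PC3 cells grown in RPMI/10% heat-inactivated FBS. Compounds added after overnight attachment as a 10-fold dilution series, […]. Percent inhibition fitted to sigmoidal dose-response to derive IC50.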

IC50	SMILES
223 nM	O=C(Nc1ccc(O[C@@H]2CCN(C(=O)C3CC3)C2)cc1)C1CN(c2ccnnc2)C1 [Example 460, N-(4-{[(3R)-1-(cyclopropylcarbonyl)pyrrolidin-3-yl]oxy}phenyl)-1-(pyridazin-4-yl)azetidine-3-carboxamide]
3.54 nM	CC(C)(C)CC(=O)N1CCC(c2ccc(NC(=O)C3CN(c4ccnnc4)C3)cc2)CC1 [Example 140, N-{4-[1-(3,3-dimethylbutanoyl)piperidin-4-yl]phenyl}-1-(pyridazin-4-yl)azetidine-3-carboxamide]
24.6 nM	CC(C)(C)C(=O)N1CCC(Oc2ccc(NC(=O)[C@H]3CCN(c4cccnn4)C3)cc2)CC1 [Example 801, (3S)-N-(4-{[1-(2,2-dimethylpropanoyl)piperidin-4-yl]oxy}phenyl)-1-(pyridazin-3-yl)pyrrolidine-3-carboxamide]
2.92 nM	O=C(Nc1ccc(C2CCN(C(=O)Cc3c(Cl)cccc3Cl)CC2)cc1)[C@H]1CCN(c2cccnn2)C1 [Example 640, (3S)-N-(4-{1-[(2,6-dichlorophenyl)acetyl]piperidin-4-yl}phenyl)-1-(pyridazin-3-yl)pyrrolidine-3-carboxamide]
71.9 nM	O=C(Nc1ccc(OC2CN(C(=O)c3ccc(F)cc3F)C2)cc1)C1CN(c2ccnnc2)C1 [Example 200, N-(4-{[1-(2,4-difluorobenzoyl)azetidin-3-yl]oxy}phenyl)-1-(pyridazin-4-yl)azetidine-3-carboxamide]
60.1 nM	CCCC(C)CN1CCC(c2ccc(NC(=O)C3CN(c4cccnc4)C3)cc2)CC1 (stereo not shown) [Example 90, N-{4-[1-(2-methylpentyl)piperidin-4-yl]phenyl}-1-(pyridin-3-yl)azetidine-3-carboxamide]
2.42 nM	O=C(Nc1ccc(C2CCN(C(=O)CC3CCCCC3)CC2)cc1)C1CN(c2cccnn2)C1 [Example 340, N-{4-[1-(cyclohexylacetyl)piperidin-4-yl]phenyl}-1-(pyridazin-3-yl)azetidine-3-carboxamide]
80.7 nM	Cc1cccc(C(=O)N2CCC(S(=O)(=O)c3ccc(NC(=O)C4CN(c5cccnn5)C4)cc3)CC2)c1C [Example 581, N-(4-{[1-(2,3-dimethylbenzoyl)piperidin-4-yl]sulfonyl}phenyl)-1-(pyridazin-3-yl)azetidine-3-carboxamide]
8.81 nM	CC[C@H](C(=O)N1CCC(c2ccc(NC(=O)[C@H]3CCN(c4cccnn4)C3)cc2)CC1)c1ccccc1 [Example 632, (3S)-N-(4-{1-[(2S)-2-phenylbutanoyl]piperidin-4-yl}phenyl)-1-(pyridazin-3-yl)pyrrolidine-3-carboxamide]
93.6 nM	O=C(Nc1ccc(S(=O)(=O)C2CCN(C(=O)c3cccc4ccccc34)CC2)cc1)C1CN(c2cccnn2)C1 [Example 591, N-(4-{[1-(naphthalen-1-ylcarbonyl)piperidin-4-yl]sulfonyl}phenyl)-1-(pyridazin-3-yl)azetidine-3-carboxamide]
67.9 nM	O=C(Nc1ccc(C2CCN(C(=O)C(c3ccccc3)c3ccccc3)CC2)cc1)[C@H]1CCN(c2cccnn2)C1 [Example 698, (3S)-N-{4-[1-(diphenylacetyl)piperidin-4-yl]phenyl}-1-(pyridazin-3-yl)pyrrolidine-3-carboxamide]
9.32 nM	O=C(Nc1ccc(O[C@@H]2CCN(C(=O)c3ccsc3)C2)cc1)C1CN(c2ccnnc2)C1 [Example 448, 1-(pyridazin-4-yl)-N-(4-{[(3R)-1-(thiophen-3-ylcarbonyl)pyrrolidin-3-yl]oxy}phenyl)azetidine-3-carboxamide]
3.97 nM	CC(C)C(C)C(=O)N1CCC(Oc2ccc(NC(=O)C3CN(c4cccnc4)C3)cc2)CC1 (stereo not shown) [Example 70, N-(4-{[1-(2,3-dimethylbutanoyl)piperidin-4-yl]oxy}phenyl)-1-(pyridin-3-yl)azetidine-3-carboxamide]
7.51 nM	O=C(Nc1ccc(C2CCN(C(=O)c3cccc(C(F)(F)F)c3)CC2)cc1)C1CN(c2cccnn2)C1 [Example 354, 1-(pyridazin-3-yl)-N-(4-{1-[3-(trifluoromethyl)benzoyl]piperidin-4-yl}phenyl)azetidine-3-carboxamide]
2.55 nM	CC(C)(C(=O)N1CCC(Oc2ccc(NC(=O)C3CN(c4cccnn4)C3)cc2)CC1)c1ccccc1 [Example 217, N-(4-{[1-(2-methyl-2-phenylpropanoyl)piperidin-4-yl]oxy}phenyl)-1-(pyridazin-3-yl)azetidine-3-carboxamide]
701 nM	Cc1ncccc1N1CC(C(=O)Nc2ccc(C3CCN(C(=O)c4ccc(F)cc4)CC3)cc2)C1 [Example 155, N-{4-[1-(4-fluorobenzoyl)piperidin-4-yl]phenyl}-1-(2-methylpyridin-3-yl)azetidine-3-carboxamide]
81.4 nM	O=C(Nc1ccc(S(=O)(=O)C2CCN(C(=O)c3ccc(C(F)(F)F)cc3)CC2)cc1)C1CN(c2cccnn2)C1 [Example 587, 1-(pyridazin-3-yl)-N-[4-({1-[4-(trifluoromethyl)benzoyl]piperidin-4-yl}sulfonyl)phenyl]azetidine-3-carboxamide]

IC50	SMILES
18.6 nM	CC(C)Cn1cc(-c2ccc(NC(=O)[C@H]3CCN(c4cccnn4)C3)cc2)cn1 [Example 769, (3S)-N-{4-[1-(2-methylpropyl)-1H-pyrazol-4-yl]phenyl}-1-(pyridazin-3-yl)pyrrolidine-3-carboxamide]
1.12 nM	O=C(Nc1ccc(C2CCN(C(=O)CCc3ccccc3)CC2)cc1)C1CN(c2cccnn2)C1 [Example 422, N-{4-[1-(3-phenylpropanoyl)piperidin-4-yl]phenyl}-1-(pyridazin-3-yl)azetidine-3-carboxamide]
0.59 nM	CC1CC1C(=O)N1CCC(c2ccc(NC(=O)C3CN(c4cccnc4)C3)cc2)CC1 (stereo not shown) [Example 102, N-(4-{1-[(2-methylcyclopropyl)carbonyl]piperidin-4-yl}phenyl)-1-(pyridin-3-yl)azetidine-3-carboxamide]
2.15 nM	O=C(Nc1ccc(O[C@@H]2CCN(C(=O)c3ccccc3F)C2)cc1)[C@H]1CCN(c2cccnn2)C1 [Example 775, (3S)-N-(4-{[(3R)-1-(2-fluorobenzoyl)pyrrolidin-3-yl]oxy}phenyl)-1-(pyridazin-3-yl)pyrrolidine-3-carboxamide]
93.2 nM	O=C(Nc1ccc(OC2CCN(C(=O)c3ccc(Cl)cc3)CC2)cc1)C1CN(c2ccnnc2)C1 [Example 297, N-(4-{[1-(4-chlorobenzoyl)piperidin-4-yl]oxy}phenyl)-1-(pyridazin-4-yl)azetidine-3-carboxamide]
8260 nM	CC(C)Cn1cc(-c2ccc(C(=O)N[C@@H]3CCN(c4ccnnc4)C3)s2)cn1 [Example 604, 5-[1-(2-methylpropyl)-1H-pyrazol-4-yl]-N-[(3R)-1-(pyridazin-4-yl)pyrrolidin-3-yl]thiophene-2-carboxamide]
1280 nM	CN1CCC(CC(=O)N2CCC(c3ccc(C(=O)N[C@H]4CCN(c5cccnn5)C4)s3)CC2)CC1 [Example 767, 5-{1-[(1-methylpiperidin-4-yl)acetyl]piperidin-4-yl}-N-[(3S)-1-(pyridazin-3-yl)pyrrolidin-3-yl]thiophene-2-carboxamide]
58.2 nM	O=C(Nc1ccc(O[C@@H]2CCN(C(=O)C3CCOC3)C2)cc1)C1CN(c2cccnn2)C1 (stereo partly drawn) [Example 503, 1-(pyridazin-3-yl)-N-(4-{[(3R)-1-(tetrahydrofuran-3-ylcarbonyl)pyrrolidin-3-yl]oxy}phenyl)azetidine-3-carboxamide]
71.5 nM	O=C(Nc1ccc(OC2CN(C(=O)C3CCC3)C2)cc1)C1CN(c2ccnnc2)C1 [Example 261, N-(4-{[1-(cyclobutylcarbonyl)azetidin-3-yl]oxy}phenyl)-1-(pyridazin-4-yl)azetidine-3-carboxamide]
148 nM	O=C(Nc1ccc(OC2CCN(C(=O)CC(F)(F)F)CC2)cc1)[C@H]1CCN(c2cccnc2)C1 [Example 18, (3S)-1-(pyridin-3-yl)-N-(4-{[1-(3,3,3-trifluoropropanoyl)piperidin-4-yl]oxy}phenyl)pyrrolidine-3-carboxamide]
119 nM	O=C(Nc1ccc(OC2CN(C(=O)C3CCCO3)C2)cc1)C1CN(c2ccnnc2)C1 (stereo not shown) [Example 262, 1-(pyridazin-4-yl)-N-(4-{[1-(tetrahydrofuran-2-ylcarbonyl)azetidin-3-yl]oxy}phenyl)azetidine-3-carboxamide]
2.14 nM	O=C(Nc1ccc(O[C@@H]2CCN(C(=O)c3ccccc3Cl)C2)cc1)C1CN(c2cccnn2)C1 [Example 483, N-(4-{[(3R)-1-(2-chlorobenzoyl)pyrrolidin-3-yl]oxy}phenyl)-1-(pyridazin-3-yl)azetidine-3-carboxamide]
63.4 nM	O=C(Nc1ccc(S(=O)(=O)C2CCN(C(=O)c3cc(F)cc(F)c3)CC2)cc1)C1CN(c2cccnn2)C1 [Example 593, N-(4-{[1-(3,5-difluorobenzoyl)piperidin-4-yl]sulfonyl}phenyl)-1-(pyridazin-3-yl)azetidine-3-carboxamide]
80.9 nM	CC(=O)N[C@@H](CC(C)C)C(=O)N1CCC(c2ccc(NC(=O)[C@H]3CCN(c4cccnn4)C3)cc2)CC1 [Example 724, (3S)-N-{4-[1-(N-acetyl-L-leucyl)piperidin-4-yl]phenyl}-1-(pyridazin-3-yl)pyrrolidine-3-carboxamide]
24.8 nM	O=C(Nc1ccc(OC2CCN(C(=O)Cc3cccc(F)c3)CC2)cc1)C1CN(c2ccnnc2)C1 [Example 288, N-[4-({1-[(3-fluorophenyl)acetyl]piperidin-4-yl}oxy)phenyl]-1-(pyridazin-4-yl)azetidine-3-carboxamide]
2.03 nM	O=C(Nc1ccc(C2CCN(C(=O)CC3CC3)CC2)cc1)C1CN(c2cccnn2)C1 [Example 427, N-{4-[1-(cyclopropylacetyl)piperidin-4-yl]phenyl}-1-(pyridazin-3-yl)azetidine-3-carboxamide]
1.83 nM	O=C(Nc1ccc(C2CCN(C(=O)C3CCCCC3)CC2)cc1)C1CN(c2cccnn2)C1 [Example 339, N-{4-[1-(cyclohexylcarbonyl)piperidin-4-yl]phenyl}-1-(pyridazin-3-yl)azetidine-3-carboxamide]
